Results taken from the Kinase Knowledgebase extract (Sharma et al. 2016).
pIC50: −log10 of the molar value.

Biological target: EGFR (UniProt P00533)
Sequence (P00533 whole entry, looked up): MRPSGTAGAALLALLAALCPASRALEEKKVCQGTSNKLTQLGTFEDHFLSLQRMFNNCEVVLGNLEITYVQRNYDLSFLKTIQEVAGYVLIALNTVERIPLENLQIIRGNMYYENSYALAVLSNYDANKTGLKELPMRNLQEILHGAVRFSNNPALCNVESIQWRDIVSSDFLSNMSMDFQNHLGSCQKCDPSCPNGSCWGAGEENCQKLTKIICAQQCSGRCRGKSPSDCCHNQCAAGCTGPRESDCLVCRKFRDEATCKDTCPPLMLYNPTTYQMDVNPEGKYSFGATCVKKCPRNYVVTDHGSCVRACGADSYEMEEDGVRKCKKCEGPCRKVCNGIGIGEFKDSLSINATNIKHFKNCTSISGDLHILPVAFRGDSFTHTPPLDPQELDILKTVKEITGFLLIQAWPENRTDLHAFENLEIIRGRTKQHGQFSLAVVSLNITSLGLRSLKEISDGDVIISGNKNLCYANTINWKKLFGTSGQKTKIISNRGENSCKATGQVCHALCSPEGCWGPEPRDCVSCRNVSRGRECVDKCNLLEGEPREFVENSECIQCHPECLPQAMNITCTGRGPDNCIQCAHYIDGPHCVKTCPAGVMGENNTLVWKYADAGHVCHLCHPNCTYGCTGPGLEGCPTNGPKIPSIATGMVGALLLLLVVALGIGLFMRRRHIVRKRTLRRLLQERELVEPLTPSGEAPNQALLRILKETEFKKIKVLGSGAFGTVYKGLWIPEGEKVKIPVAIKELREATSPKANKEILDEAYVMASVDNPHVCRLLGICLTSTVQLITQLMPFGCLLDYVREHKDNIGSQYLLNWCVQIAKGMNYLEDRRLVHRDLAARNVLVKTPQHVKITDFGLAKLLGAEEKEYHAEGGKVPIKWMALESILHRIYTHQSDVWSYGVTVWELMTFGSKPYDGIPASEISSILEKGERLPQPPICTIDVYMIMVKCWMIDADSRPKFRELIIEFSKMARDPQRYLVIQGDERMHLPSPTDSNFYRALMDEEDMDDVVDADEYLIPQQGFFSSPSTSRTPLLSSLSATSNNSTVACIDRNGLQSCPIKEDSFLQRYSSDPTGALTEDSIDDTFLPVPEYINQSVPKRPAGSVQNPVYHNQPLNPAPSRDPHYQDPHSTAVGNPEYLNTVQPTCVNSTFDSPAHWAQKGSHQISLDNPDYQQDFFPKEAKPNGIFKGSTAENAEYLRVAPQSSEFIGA

| Compound | pIC50 |
| --- | --- |
| COc1cc2c(Nc3ccc(Br)c(Cl)c3F)ncnc2cc1OC[C@@H]1CN2CCC[C@H]2CO1 | > 7.30 |
| COc1cc2c(Nc3ccc(Cl)c(Cl)c3)ncnc2cc1OCc1cscn1 | > 7.30 |
| COc1cc2c(Nc3ccc(Cl)c(Cl)c3)ncnc2cc1OCCC1CCCN1C (configuration not stated) | > 7.30 |
| COc1cc2c(Nc3ccc(Cl)c(Cl)c3)ncnc2cc1OCc1csc(C2CCN(C)CC2)n1 | > 7.30 |
| COc1cc2c(Nc3ccc(Cl)c(Cl)c3)ncnc2cc1OCC1CN(C(C)C)CCCO1 (configuration not stated) | > 7.30 |
| COc1cc2c(Nc3ccc(Cl)c(Cl)c3)ncnc2cc1OCc1csc(-c2ccc(C(F)(F)F)cc2)n1 | 6.00 to 7.30 |
| COc1cc2c(Nc3ccc(Cl)c(Cl)c3)ncnc2cc1OCC1CN(S(=O)(=O)Cc2ccccc2)CCO1 (configuration not stated) | > 7.30 |
| COc1cc2c(Nc3ccc(Cl)c(Cl)c3F)ncnc2cc1O[C@H]1CO[C@H]2[C@@H]1OC[C@@H]2OC | > 7.30 |
| COc1cc2c(Nc3ccc(Cl)c(Cl)c3)ncnc2cc1OCc1cc(Br)cc(Br)c1 | 6.00 to 7.30 |
| COc1cc2c(Nc3ccc(Cl)c(Cl)c3)ncnc2cc1OCc1nc(N(C)C)no1 | > 7.30 |
| CCN(CC)c1ccc(-c2csc(COc3cc4ncnc(Nc5ccc(Cl)c(Cl)c5)c4cc3OC)n2)cc1 | > 7.30 |
| COc1cc2c(Nc3cc(Cl)c(Br)cc3F)ncnc2cc1OC[C@H]1CN2CCOC[C@H]2CO1 | > 7.30 |
| COc1cc2c(Nc3ccc(Cl)c(Cl)c3)ncnc2cc1OCC1CN(C(C)C(C)=O)CCO1 (configuration not stated) | > 7.30 |
| COc1cc2c(Nc3ccc(Br)c(Cl)c3)ncnc2cc1O[C@H]1CO[C@@H]2[C@H]1OC[C@@H]2NS(C)(=O)=O | > 7.30 |
| COc1cc2c(Nc3cc(Br)cc(C(F)(F)F)c3)ncnc2cc1O[C@@H]1CO[C@@H]2[C@H]1OC[C@H]2F | > 7.30 |
| COc1cc2c(Nc3cccc(Br)c3C)ncnc2cc1O[C@H]1CO[C@H]2[C@@H]1OC[C@@H]2OC | > 7.30 |
| COc1cc2c(Nc3ccc(F)c(Cl)c3F)ncnc2cc1OCC1CN(C)C(C)(C)CO1 (configuration not stated) | > 7.30 |
| CNC(=NC#N)N1CCOC(COc2cc3ncnc(Nc4ccc(Cl)c(Cl)c4)c3cc2OC)C1 (configuration not stated) | > 7.30 |
| COc1cc2c(Nc3ccc(Cl)c(Cl)c3)ncnc2cc1OCC1CN(CCC2CCCCC2)CCO1 (configuration not stated) | > 7.30 |
| COc1cc2c(Nc3cc(C(F)(F)F)ccc3Br)ncnc2cc1O[C@@H]1CO[C@@H]2[C@H]1OC[C@H]2F | > 7.30 |
| COc1cc2c(Nc3ccc(Cl)c(Cl)c3)ncnc2cc1OCC1CN(CCO)CCO1 (configuration not stated) | > 7.30 |
| COc1cc2c(Nc3ccc(Br)c(Cl)c3)ncnc2cc1O[C@H]1CO[C@@H]2[C@H]1OC[C@@H]2N1CCCC1 | > 7.30 |
| COc1cc2c(Nc3ccc(F)c(Cl)c3F)ncnc2cc1OCC1CN(C)CCO1 (configuration not stated) | > 7.30 |

| Compound | pIC50 |
| --- | --- |
| COc1cc2c(Nc3cccc(Br)c3C)ncnc2cc1OCC1CN(C)CCO1 (configuration not stated) | > 7.30 |
| COc1cc2c(Nc3ccc(Cl)c(Cl)c3)ncnc2cc1OCCN1C(=O)c2ccccc2C1=O | > 7.30 |
| COc1cc2c(Nc3ccc(Cl)c(Cl)c3F)ncnc2cc1OC[C@@H]1CN2CCC[C@H]2CO1 | > 7.30 |
| COc1cc2c(Nc3ccc(N4CCN(C)CC4)cc3)ncnc2cc1O[C@H]1CO[C@@H]2[C@H]1OC[C@@H]2F | > 7.30 |
| COc1ccc(-c2nc(COc3cc4ncnc(Nc5ccc(Cl)c(Cl)c5)c4cc3OC)no2)cc1 | > 7.30 |
| COc1cc2c(Nc3ccc(Cl)c(Cl)c3)ncnc2cc1OCc1nc(CS(=O)(=O)c2ccccn2)no1 | > 7.30 |
| CCCCCN1CCOC(COc2cc3ncnc(Nc4ccc(Cl)c(Cl)c4)c3cc2OC)C1 (configuration not stated) | > 7.30 |
| COc1cc2c(Nc3ccc(Cl)c(Cl)c3)ncnc2cc1OCC1CN(C(=O)CCc2ccccc2)CCO1 (configuration not stated) | > 7.30 |
| COc1cc2c(Nc3ccc(Cl)c(Cl)c3)ncnc2cc1OCC1CN(CCC2OCCCO2)CCO1 (configuration not stated) | > 7.30 |
| CCOc1cc2c(Nc3ccc(Cl)c(Cl)c3)ncnc2cc1OCC1CN(C)CCO1 (configuration not stated) | > 7.30 |
| CCN1CCC(c2nc(COc3cc4ncnc(Nc5ccc(Cl)c(Cl)c5)c4cc3OC)cs2)CC1 | > 7.30 |
| CCN1CCCCC1c1nc(COc2cc3ncnc(Nc4ccc(Cl)c(Cl)c4)c3cc2OC)cs1 (configuration not stated) | > 7.30 |
| CCCCS(=O)(=O)N1CCOC(COc2cc3ncnc(Nc4ccc(Cl)c(Cl)c4)c3cc2OC)C1 (configuration not stated) | > 7.30 |
| COc1cc2c(Nc3ccc(Br)c(Cl)c3Cl)ncnc2cc1OC[C@@H]1CN2CCC[C@H]2CO1 | > 7.30 |
| COc1cc2c(Nc3ccc(Cl)c(Cl)c3)ncnc2cc1OCC1CN(CCCOC2CCCCO2)CCCO1 (configuration not stated) | > 7.30 |
| COc1cc2c(Nc3cccc(Br)c3Cl)ncnc2cc1OCC1CN(C)CCO1 (configuration not stated) | > 7.30 |
| COc1cc2c(Nc3ccc(Cl)c(Cl)c3)ncnc2cc1OCc1noc(-c2ccccc2OC)n1 | > 7.30 |
| COc1cc2c(Nc3ccc(Cl)c(Cl)c3)ncnc2cc1OCc1noc(OCc2ccccc2)n1 | > 7.30 |
| COCCOc1cc2c(Nc3ccc(Cl)c(Cl)c3)ncnc2cc1OCC1CNCCO1 (configuration not stated) | > 7.30 |
| COc1cc2c(Nc3ccc(Cl)c(Cl)c3F)ncnc2cc1OCC1CN(C)C(C)(C)CO1 (configuration not stated) | > 7.30 |
| COc1cc2c(Nc3ccc(Br)c(Cl)c3)ncnc2cc1OC1CCN(C)C1 (configuration not stated) | > 7.30 |
| COc1cc2c(Nc3ccc(Cl)c(Cl)c3)ncnc2cc1OCc1csc(-c2ccc(Cl)cc2)n1 | 6.00 to 7.30 |
| CN1CCOC(COc2cc3ncnc(Nc4ccc(Cl)c(Cl)c4)c3cc2O)C1 (configuration not stated) | > 7.30 |

| Compound | pIC50 |
| --- | --- |
| COc1cc2c(Nc3ccc(Br)c(Cl)c3Cl)ncnc2cc1O[C@H]1CO[C@H]2[C@@H]1OC[C@@H]2OC | > 7.30 |
| COc1cc2c(Nc3ccc(Br)c(Cl)c3C)ncnc2cc1OCC1CN(C)CCO1 (configuration not stated) | > 7.30 |
| COc1cc2c(Nc3cc(F)c(Oc4ccc(Cl)cc4)c(F)c3)ncnc2cc1O[C@@H]1CO[C@@H]2[C@H]1OC[C@H]2F | > 7.30 |
| COc1cc2c(Nc3ccc(Cl)c(Cl)c3F)ncnc2cc1OC[C@@H]1CN(C)CC(=O)N1C | > 7.30 |
| COc1cc2c(Nc3ccc(Cl)c(Cl)c3)ncnc2cc1OCC1CN2CCOCC2CO1 (configuration not stated) | > 7.30 |
| COc1cc2c(Nc3ccc(Br)c(Cl)c3)ncnc2cc1O[C@H]1CO[C@@H]2[C@H]1OC[C@@H]2N(C)C | > 7.30 |
| COc1cc2c(Nc3ccc(Br)c(Cl)c3)ncnc2cc1O[C@H]1CO[C@@H]2[C@H]1OC[C@@H]2N1CCCCC1 | > 7.30 |
| COc1cc2c(Nc3cc(F)ccc3F)ncnc2cc1O[C@@H]1CO[C@@H]2[C@H]1OC[C@H]2F | > 7.30 |
| COc1cc2c(Nc3ccccc3Cl)ncnc2cc1O[C@@H]1CO[C@@H]2[C@H]1OC[C@H]2F | > 7.30 |
| COc1cc2c(Nc3ccc(Br)c(Cl)c3Cl)ncnc2cc1OC[C@@H]1CO[C@H]2[C@@H]1OC[C@@H]2O | > 7.30 |
| COc1cc2c(Nc3ccc(Br)c(Cl)c3F)ncnc2cc1OCC1CN(C)C(C)(C)CO1 (configuration not stated) | > 7.30 |
| COc1cc2c(Nc3ccc(Cl)c(Cl)c3)ncnc2cc1OCc1noc(C2CCCN2)n1 (configuration not stated) | > 7.30 |
| COc1cc2c(Nc3ccc(Br)c(F)c3F)ncnc2cc1OCC1CN(C)CCO1 (configuration not stated) | > 7.30 |
| COc1cc2c(Nc3ccc(Cl)c(Cl)c3)ncnc2cc1OCC1CN(CCOCCO)CCO1 (configuration not stated) | > 7.30 |
| C=CCN1CCOC(COc2cc3ncnc(Nc4ccc(Cl)c(Cl)c4)c3cc2OC)C1 (configuration not stated) | > 7.30 |
| COc1cc2c(Nc3ccc(Cl)c(Cl)c3)ncnc2cc1OCc1noc(-c2ccccc2)n1 | > 7.30 |
| COc1cc2c(Nc3ccc(Cl)c(Cl)c3)ncnc2cc1OCc1c(F)cccc1F | > 7.30 |
| CCC1(C)CN(C)CC(COc2cc3ncnc(Nc4ccc(Cl)c(Cl)c4)c3cc2OC)O1 (configuration not stated) | > 7.30 |
| CCCCCC(=O)N1CCOC(COc2cc3ncnc(Nc4ccc(Cl)c(Cl)c4)c3cc2OC)C1 (configuration not stated) | > 7.30 |
| COc1cc2c(Nc3cc(Cl)c(Cl)cc3F)ncnc2cc1OCC1CN(C)CCO1 (configuration not stated) | > 7.30 |
| COc1cc2c(Nc3ccc(Cl)c(Cl)c3)ncnc2cc1OCc1nc(-c2ccc(N3CCCC3)cc2)cs1 | > 7.30 |
| COc1cc2c(Nc3ccc(Cl)c(Cl)c3)ncnc2cc1OCC1CN(C)C(C)(C)C(=O)O1 (configuration not stated) | > 7.30 |
| COc1cc2c(Nc3ccc(Cl)c(C)c3)ncnc2cc1OCC1CN(C)CCO1 (configuration not stated) | > 7.30 |

| Compound | pIC50 |
| --- | --- |
| COC(=O)CCC(=O)N1CCOC(COc2cc3ncnc(Nc4ccc(Cl)c(Cl)c4)c3cc2OC)C1 (configuration not stated) | > 7.30 |
| CCN1CCCCC1c1nc(COc2cc3ncnc(Nc4ccc(Cl)c(Cl)c4)c3cc2OC)no1 (configuration not stated) | > 7.30 |
| COc1cc2c(Nc3ccc(Br)c(Cl)c3F)ncnc2cc1OC[C@H]1CN2CCOC[C@H]2CO1 | > 7.30 |
| C=CCCCN1CCOC(COc2cc3ncnc(Nc4ccc(Cl)c(Cl)c4)c3cc2OC)C1 (configuration not stated) | > 7.30 |
| COc1cc2c(Nc3ccc(Cl)c(Cl)c3)ncnc2cc1OCC1CN(CCCCCCO)CCO1 (configuration not stated) | > 7.30 |
| COc1cc2c(Nc3ccc(Cl)c(Cl)c3)ncnc2cc1OCc1csc([C@@H]2CCCN2C)n1 | > 7.30 |
| COc1cc2c(Nc3ccc(Cl)c(Cl)c3)ncnc2cc1OCc1ccc2nc(C(F)(F)F)cc(Cl)c2c1 | 6.00 to 7.30 |
| COc1cc2c(Nc3ccc(Cl)c(Cl)c3)ncnc2cc1OCc1nc2c(s1)CNCC2 | > 7.30 |
| COc1cc(OC)c(Nc2ncnc3cc(O[C@@H]4CO[C@@H]5[C@H]4OC[C@H]5F)c(OC)cc23)cc1Cl | > 7.30 |
| COc1cc2c(Nc3ccc(Br)cc3C)ncnc2cc1OCC1CN(C)CCO1 (configuration not stated) | > 7.30 |
| COc1cc2c(Nc3ccc(Cl)c(Cl)c3)ncnc2cc1OCC1CN(C(N)=NC#N)CCO1 (configuration not stated) | > 7.30 |
| COc1cc2c(Nc3ccc(Br)c(Cl)c3F)ncnc2cc1OC[C@@H]1CN2CCOC[C@H]2CO1 | > 7.30 |
| CC(C)Oc1cc2c(Nc3ccc(Cl)c(Cl)c3)ncnc2cc1OCC1CNCCO1 (configuration not stated) | > 7.30 |
| COc1cc2c(Nc3cc(Cl)c(Cl)cc3F)ncnc2cc1OCC1CN(C)C(C)(C)CO1 (configuration not stated) | > 7.30 |
| COc1cc2c(Nc3ccc(Cl)c(C(F)(F)F)c3)ncnc2cc1O[C@@H]1CO[C@@H]2[C@H]1OC[C@H]2F | > 7.30 |
| COc1cc2c(Nc3ccc(Cl)c(Cl)c3)ncnc2cc1OCC(=O)N1CCOCC1 | > 7.30 |
| COc1cc2c(Nc3ccc(Cl)c(Cl)c3)ncnc2cc1OCC1CN(S(=O)(=O)c2ccc(F)cc2)CCO1 (configuration not stated) | > 7.30 |
| COc1cc2c(Nc3ccc(Cl)c(Cl)c3)ncnc2cc1OCc1nc(CN2CCOCC2)cs1 | > 7.30 |
| COc1cc2c(Nc3ccc(Cl)c(Cl)c3)ncnc2cc1OCc1cc(F)cc2c1OCOC2 | > 7.30 |
| COc1cc2c(Nc3cc(Cl)c(Cl)c(Cl)c3)ncnc2cc1O[C@@H]1CO[C@@H]2[C@H]1OC[C@H]2F | > 7.30 |
| CC#CCN1CCOC(COc2cc3ncnc(Nc4ccc(Cl)c(Cl)c4)c3cc2OC)C1 (configuration not stated) | > 7.30 |
| COc1cc2c(Nc3ccc(Cl)cc3Cl)ncnc2cc1OCC1CN(C)CCO1 (configuration not stated) | > 7.30 |
| COc1cc2c(Nc3ccc(Cl)c(Cl)c3)ncnc2cc1OCc1csc(C2CCCCN2)n1 (configuration not stated) | > 7.30 |
